{"source": "paper PMC12058896", "about": "“Potent antimicrobial activity of hydrogel loaded with the antimicrobial peptide, D-Bac8c^2,5 Leu, against monospecies and polymicrobial biofilms of Staphylococcus aureus and Pseudomonas aeruginosa” (Frontiers in Microbiology, 2025)", "key": {"HUVEC": {"system": "HUVEC", "test": "MTT cell viability", "assay_type": "cell-based, human", "details": "24 h, 37°C, 5% CO2, average of three independent experiments"}, "HaCaT": {"system": "HaCaT", "test": "MTT cell viability", "assay_type": "cell-based, human", "details": "24 h, 37°C, 5% CO2, average of three independent experiments"}, "human red blood cells": {"system": "human red blood cells", "assay_type": "cell-based", "method": "Potential haemolytic activity of the peptide was determined using fresh human erythrocytes from healthy donors based on the method described by [Cantisani et al. (2013)]. Human blood was drawn [ethylenediaminetetraacetic acid (EDTA); 1.6 mg/mL], and red blood cells (RBCs) were separated by centrifugation at 1000 x g for 5 min at 18°C. Upon 3 washes with PBS, the RBCs were further diluted 2-fold (v/v) into PBS. D-Bac8c^2,5 Leu was added to erythrocyte suspension at a final concentration ranging from 3.125 to 200 μg/mL in a final volume of 100 μL. Samples were incubated at 37°C for 24 h. The level of haemolysis was assessed by measuring the absorbance of supernatant at 490 nm. Triton-X-100 was used as a positive control for haemolysis."}, "[1]": {"system": "tested strains (SH1000, BH48, USA300, BH1CC, PAO1)", "test": "In vitro serial passage, induction of resistance", "assay_type": "cell-based, S. aureus and P. aeruginosa", "details": "subculturing for 14 days at sub-MIC concentrations", "method": "This assay was performed as outlined previously with some modifications ([Ge et al., 1999]; [Mohan et al., 2019]). Briefly, the in vitro serial passage study involved exposing bacteria diluted to 10^4 CFU/mL in cationic adjusted Muller Hinton Broth (Merck, Ireland) to D-Bac8c^2,5 Leu at one-half of the previously established bactericidal concentration. After 90 min of incubation at 37°C, 10 μL was plated in triplicate on MH agar and incubated again overnight. Post-incubation, surviving colonies were harvested, diluted in PBS and re-adjusted to 1 × 10^4 CFU/mL before repeated treatment with the sub-bactericidal concentration. This concentration was determined prior to the initiation of the study and after the 4th, 7th, 11th, and 14th passages. If the concentration after these passages was greater than the original determinate, then at passages […], the amount of peptide used during the bacterial challenge was increased. This was continued over a 14-day course. This assay was performed in independent duplicates."}, "S. aureus strains": {"system": "S. aureus strains", "assay_type": "cell-based, Staphylococcus aureus", "details": "2 MRSA and 2 MSSA strains, summed up in text", "method": "Strains used in the study were isolates of methicillin-resistant Staphylococcus aureus (MRSA); USA300 LAC, BH1CC ([O’Neill et al., 2007]), methicillin-sensitive S. aureus (MSSA); SH1000 ([Horsburgh et al., 2002]) and BH48 ([O’Neill et al., 2007]); and Pseudomonas aeruginosa PAO1 (ATCC […]). Clinical isolates were obtained from a previous collection of isolates of infected wounds. Bacteria were grown aerobically at 37°C with shaking at 200 rpm in Brain Heart Infusion (BHI, Oxoid, Ireland). Selective media, Mannitol Salt Agar (SLS, Ireland) and MacConkey agar (SLS, Ireland), for re-isolation of bacterial strains from mixed species biofilms were used. Bolton Broth (Fannin, Ireland) supplemented with 50% bovine heparin plasma (TebuBio, UK), and 5% laked horse blood (Sigma-Aldrich, Ireland) was used to mimic in vivo conditions for static antibiofilm testing. For dynamic biofilm growth Simulated Wound Fluid (SWF) prepared as described previously with slight modification, 3% v/v fetal bovine serum in maximum recovery diluent (Merck, Ireland) was used ([Barbour et al., 2016]).\nMinimum inhibitory concentration (MIC) was determined aerobically using the broth microdilution assay as recommended by the Clinical and Laboratory Standards Institute (CLSI) ([CLSI, 2018]). […]"}, "[2]": {"system": "monospecies and polymicrobial biofilms of Staphylococcus aureus and Pseudomonas aeruginosa", "test": "Static biofilm assays", "assay_type": "cell-based", "method": "Biofilms were formed under static conditions using flat 96-well polystyrene plates as described previously with few modifications ([[…] al., 2018]). Briefly, overnight cultures in BHI were washed and diluted 1:200 in fresh Bolton Broth media supplemented with 50% bovine heparin plasma, and 5% laked horse blood. From this suspension, 100 μL was used to inoculate the microtiter plate wells prior to static incubation at 37°C for 24 h, 3 days and 5 days. The media in each well was changed daily during prolonged incubation periods (3 and 5 days). […] After incubation with D-Bac8c^2,5 Leu, biofilms were washed twice with PBS and biofilm assessment was performed. For the polymicrobial biofilms, a bacterial solution ratio 1:1 of S. aureus and P. aeruginosa at 1 × 10^5 CFU/mL each was used to inoculate the wells. In each assay, inoculated medium without antimicrobials and uninoculated medium served as growth and sterility controls, respectively. […] Viability of biofilm cells after treatment was measured using resazurin-conversion assay as previously described ([Hogan et al., 2016]) (Sigma-Aldrich, Ireland). […] Fluorescence intensity was detected at excitation of 544 nm and emission of 590 nm using a fluorimeter, Perkin Elmer 2030 Multilabeled Reader, Victor 3X. […] After overnight incubation at 37°C, CFU were counted and results were expressed as log10CFU/mL."}, "IL-8": {"system": "IL-8", "details": "ref Zapotoczna et al. (2017); cited from earlier work", "from_the_text": "Similarly, here we verified that D-Bac8c^2,5 Leu has low toxicity to human monocytes THP-1."}}, "note": "Non-standard residues stand in square brackets, D forms with d. Residues, ends and D or L forms follow the SMILES beside them."}
{"compound": "CC(C)C[C@@H](NC(=O)[C@H](N)CCCNC(=N)N)C(=O)N[C@H](Cc1c[nH]c2ccccc12)C(=O)N[C@@H](C(=O)N[C@H](CC(C)C)C(=O)N[C@H](Cc1c[nH]c2ccccc12)C(=O)N[C@H](CCCNC(=N)N)C(=O)N[C@H](CCCNC(=N)N)C(N)=O)C(C)C", "note": "[D-Bac8c^2,5 Leu] (H-[dR][dL][dW][dV][dL][dW][dR][dR]-NH2; N-terminus assumed)", "values": [{"measurement": "IC50 (50% cell viability), MTT", "setting": "HUVEC", "result": 134, "unit": "µg/mL"}, {"measurement": "IC50 (50% cell viability), MTT", "setting": "HaCaT", "result": 426.7, "unit": "µg/mL"}, {"measurement": "haemolytic activities", "setting": "human red blood cells", "result": "negligible"}, {"measurement": "development of resistance (change in MIC)", "setting": "[1]", "result": "not accompanied by increased resistance"}, {"measurement": "MIC against S. aureus strains", "setting": "S. aureus strains", "result": 8, "unit": "µg/mL"}, {"measurement": "reduction in bacterial load compared to untreated controls", "setting": "[2]; static biofilm assays, summed up in abstract", "result": "2–3 log"}, {"measurement": "minimum concentration needed to inactivate biofilms", "setting": "[2]; static biofilms, 6 h treatment (Figures 1, 2 and Table 3)", "result": 64, "unit": "µg/mL"}, {"measurement": "biofilm-induced increase in IL-8 levels", "setting": "IL-8", "result": "inhibited"}]}
